According to patent US20070167509A1, “Use of phenserine and analogs to treat behavioral problems and improve trainability” (priority 2005, published 2007):

Assays:
Type in all cases: in vivo
aged dogs = assay: CP-118,954 study of DNMP performance, counter-balanced within-subject design
middle-aged beagle dogs = assay: delayed-non-matching-to-sample task (DNMS), recognition memory; details: 0.5 mg/kg dose
Description: The present study assessed the effects of a 0.5 mg/kg dose of phenserine in middle-aged dogs tested on a recognition memory task.
Six middle-aged beagle dogs (4 female and 2 male) served as subjects. Dogs were divided equally into 2 groups matched for performance on their most recent 10 sessions on the delayed-non-matching-to-sample task (DNMS; (Callahan et al., 2000). One group was administered phenserine (0.5 mg/kg) via capsule in a meatball and the second group served as control. Animals were tested one-hour after drug administration and were tested on a total of 20 test sessions.
To examine the effects of phenserine on DNMS performance, mean performance over groups of five test sessions was analyzed (see e.g., FIG. 1).

senior beagle dogs [1] = assay: relearning of the delayed-non-matching-to-position task (DNMP); details: N=4
Description: Five male and two female senior beagle dogs (M+S.D.=14.60+1.46 years) served as subjects (Table 1). Dogs were divided into two groups matched on their most recent DNMP performance; the first group (N=4) was administered phenserine (0.5 mg/kg) via capsule in a meatball and the second group (N=3) was administered a placebo meatball. Dogs received a five-day wash-in period prior to study initiation and were administered their respective treatments 1-hour prior to DNMP testing. Dogs were trained initially on the DNMP using a 5-s delay until a 2-stage criterion was passed. The first stage required animals to achieve a score of 11/12 on one day, a score of 10/12 over two consecutive days, or a score of 29/36 over three consecutive days. Subsequently, the dogs were required to achieve a score of 26/36 over the following three days to pass the second stage.

senior beagle dogs [2] = assay: variable-delay DNMP under scopolamine / saline challenge; details: scopolamine 15 μg/kg SC, 20-s (p=0.038) and 80-s (p=0.082) delays
Description: Following relearning of the DNMP, dogs were tested on a variable-delay paradigm in which delays of 20 and 80 s were used. The delays occurred equally among the trials in a daily test session. We have previously shown that the 15-μg/kg dose selectively impairs DNMP performance (Araujo et al., 2004a). The dogs were first divided into two groups, one that was administered phenserine and the other received a placebo control. All subjects were given a 5-day stabilization period and then tested under scopolamine (15 μg/kg, SC) and saline (SC), administered 45 min prior to testing, over two test days separated by a treatment washout day. One day following the second treatment day, animals were removed from phenserine or placebo treatments and re-tested on the stabilization days and under scopolamine and saline treatment as indicated above.

O=C1Cc2cc3c(CCC4CCN(Cc5ccccc5)CC4)noc3cc2N1 [CP-118,954]
DNMP performance (aged dogs): no significant improvement

CN1CC[C@@]2(C)c3cc(OC(=O)Nc4ccccc4)ccc3N(C)[C@@H]12 [phenserine, (−)-phenylcarbamoyleseroline]
adverse effects (middle-aged beagle dogs): No obvious adverse effects
mean errors to relearn the DNMP (M+SEM) (senior beagle dogs [1]; 0.5 mg/kg via capsule 1 hour prior to testing, 5-s delay, placebo 14.33+6.98): 5.25+0.85 errors
fewer errors compared to the most previous relearning rates (M+SEM) (senior beagle dogs [1]; 0.5 mg/kg, placebo group showed more errors (6.33+9.53)): 5.00+4.51 errors

CN1[C@@H]2C[C@@H](OC(=O)[C@H](CO)c3ccccc3)C[C@H]1[C@@H]1O[C@@H]12 [scopolamine]
DNMP performance of the placebo group after treatment with scopolamine (senior beagle dogs [2]): performance deficits
